A value given as a limit tells only on which side of the number the result lay.

The text below walks through data of patent US20260297042A1, “BIARYLAMIDE DERIVATIVES AND THEIR USE AS PKMYT1 INHIBITORS” (CANCER RESEARCH TECHNOLOGY LIMITED, priority 2023, published 2026).

One assay has as its target T1, Human PKMYT1 (Homo sapiens, UniProt Q99640).
T1 construct: Human PKMYT1 75-362 was cloned as a TEV cleavable 6xHis fusion; 6xHis (TEV cleavable) (cleaved yes); made in house; host or cells: bacterial cells
T1 sequence (Q99640 75-362): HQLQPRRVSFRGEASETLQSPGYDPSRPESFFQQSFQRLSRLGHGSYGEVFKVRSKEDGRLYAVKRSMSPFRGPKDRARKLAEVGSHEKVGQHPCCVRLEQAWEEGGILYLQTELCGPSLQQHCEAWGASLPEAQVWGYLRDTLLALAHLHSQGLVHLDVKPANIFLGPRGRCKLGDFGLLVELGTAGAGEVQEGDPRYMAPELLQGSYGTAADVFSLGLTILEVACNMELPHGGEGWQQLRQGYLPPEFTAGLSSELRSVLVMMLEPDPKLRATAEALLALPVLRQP
Briefly: PKMYT1 biochemical ADP-Glo enzymatic assay. Conditions: ADP-Glo; 15 nM PKMYT1 kinase domain, 500 µM ATP, 60 minutes at 26° C.; banded. Summed up:
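Purified untagged human PKMYT1 75-362 at 15 nM final was tested in HEPES pH 7.5 with MgCl2, EGTA, Brij-35 and 1% DMSO. Intrinsic ATPase activity was measured with 500 uM ATP over 60 min at 26° C. ADP-Glo luminescence was read and IC50 fitted from 10-point, 3-fold dilution curves.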

The next assay concerns the target T2, WEE1 (Homo sapiens, UniProt P30291).
T2 construct: purchased Thermo Fisher PR7373A
In words: Selectivity versus WEE1 assay (ADP-Glo enzymatic assay). The format is biochemical. The conditions noted are these: banded; for IC50: ADP-Glo, 15 nM WEE1, 60 minutes at 26° C.; for PKMYT1 vs. WEE1 selectivity: fold difference in selectivity for PKMYT1 over WEE1, ">N" = at least in this band but could be higher. Summed up: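 WEE1 at 15 nM final in 50 mM HEPES pH 7.5, 10 mM MgCl2, 1 mM EGTA, 0.01% Brij-35, 1% DMSO; reaction started with 30 µM ATP, 60 min at 26 °C. ADP-Glo luminescence; IC50 from dose-response curves, replicates within 3-fold and r2 >0.9.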

T2 sequence (P30291 whole entry): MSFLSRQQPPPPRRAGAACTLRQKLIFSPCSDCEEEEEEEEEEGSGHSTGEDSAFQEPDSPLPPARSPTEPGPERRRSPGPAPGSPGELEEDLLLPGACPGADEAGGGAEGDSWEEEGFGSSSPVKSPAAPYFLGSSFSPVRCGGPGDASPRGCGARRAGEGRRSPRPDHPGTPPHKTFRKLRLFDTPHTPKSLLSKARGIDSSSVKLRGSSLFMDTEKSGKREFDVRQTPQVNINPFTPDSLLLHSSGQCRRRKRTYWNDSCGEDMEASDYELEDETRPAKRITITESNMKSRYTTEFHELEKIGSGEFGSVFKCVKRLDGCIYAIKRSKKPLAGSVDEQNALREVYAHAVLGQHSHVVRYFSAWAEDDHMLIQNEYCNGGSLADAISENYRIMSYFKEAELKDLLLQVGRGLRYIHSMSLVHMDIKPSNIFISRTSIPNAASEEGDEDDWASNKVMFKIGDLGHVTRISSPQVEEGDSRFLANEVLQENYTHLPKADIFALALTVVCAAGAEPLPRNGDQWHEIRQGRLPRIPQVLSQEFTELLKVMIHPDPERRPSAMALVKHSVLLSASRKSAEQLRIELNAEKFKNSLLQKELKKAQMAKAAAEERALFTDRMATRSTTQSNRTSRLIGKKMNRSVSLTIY

As for `Cc1ccc(O)c(C)c1NC(=O)c1cnc(Nc2ccc(C(F)(F)F)cn2)s1` [BAA-280, N-(3-hydroxy-2,6-dimethylphenyl)-2-((5-(trifluoromethyl)pyridin-2-yl)amino)thiazole-5-carboxamide], at Human PKMYT1, the IC50 lay within 50 to 1000 nM. On WEE1, the IC50 is more than 11000 nM and the “PKMYT1 vs. WEE1 selectivity” value is listed as “Y (1000-5000 fold)”.

In the case of `Cc1ccc(O)c(C)c1NC(=O)c1cnc(Nc2ccc(C(C)(C)C)cc2)s1` [BAA-281, 2-((4-(tert-butyl)phenyl)amino)-N-(3-hydroxy-2,6-dimethylphenyl)thiazole-5-carboxamide], the IC50 on Human PKMYT1 is 50 to 1000 nM; against WEE1 it was more than 11000 nM. The “PKMYT1 vs. WEE1 selectivity” value on WEE1 is “X (100-<1000 fold)”.

At Human PKMYT1, `Cc1ccc(O)c(C)c1NC(=O)c1cnc(Nc2ccc(F)c(C#N)c2)s1` [BAA-282, 2-((3-cyano-4-fluorophenyl)amino)-N-(3-hydroxy-2,6-dimethylphenyl)thiazole-5-carboxamide] had an IC50 of 1000 to 11000 nM. In addition, on WEE1, the IC50 was more than 11000 nM and the “PKMYT1 vs. WEE1 selectivity” value was “W (10-<100 fold)”.

For `Cc1ccc(O)c(C)c1NC(=O)c1cnc(Nc2ccc(C#N)c(F)c2)s1` [BAA-283, 2-((4-cyano-3-fluorophenyl)amino)-N-(3-hydroxy-2,6-dimethylphenyl)thiazole-5-carboxamide], the IC50 against Human PKMYT1 was in the range of 1000 to 11000 nM. Further, on WEE1, the IC50 is more than 11000 nM and the “PKMYT1 vs. WEE1 selectivity” value was “W (10-<100 fold)”.

In the case of `Cc1ccc(O)c(C)c1NC(=O)c1cnc(Nc2cccc(S(=O)(=O)C(F)(F)F)c2)s1` [BAA-284, N-(3-hydroxy-2,6-dimethylphenyl)-2-((3-((trifluoromethyl)sulfonyl)phenyl)amino) thiazole-5-carboxamide], the IC50 at Human PKMYT1 fell in the range of 1000 to 11000 nM. At WEE1, the IC50 is more than 11000 nM and the “PKMYT1 vs. WEE1 selectivity” value was “W (10-<100 fold)”.

Turning to `Cc1ccc(O)c(C)c1NC(=O)c1cnc(Nc2ccc(S(=O)(=O)C(F)(F)F)cc2)s1` [BAA-285, N-(3-hydroxy-2,6-dimethylphenyl)-2-((4. ((trifluoromethyl)sulfonyl)phenyl)amino) thiazole-5-carboxamide], the IC50 on Human PKMYT1 lay in the range of 1000 to 11000 nM. Besides, at WEE1, the IC50 is more than 11000 nM and the “PKMYT1 vs. WEE1 selectivity” value is reported as “W (10-<100 fold)”.

The compound `Cc1ccc(O)c(C)c1NC(=O)c1cnc(Nc2cccc(S(=O)(=O)N3CC(F)(F)C(F)(F)C3)c2)s1` [BAA-286, N-(3-hydroxy-2,6-dimethylphenyl)-2-((3-((3,3,4,4-tetrafluoropyrrolidin-1-yl)sulfonyl)phenyl)amino)thiazole-5-carboxamide] gave an IC50 on Human PKMYT1 of 1000 to 11000 nM. Further, at WEE1, the IC50 is more than 11000 nM and the “PKMYT1 vs. WEE1 selectivity” value is listed as “W (10-<100 fold)”.

`Cc1ccc(O)c(C)c1NC(=O)c1cnc(Nc2cc(Cl)nc(C(F)(F)F)n2)s1` [BAA-287, 2-((6-chloro-2-(trifluoromethyl)pyrimidin-4-yl)amino)-N-(3-hydroxy-2,6-dimethylphenyl)thiazole-5-carboxamide] showed an IC50 at Human PKMYT1 of less than 50 nM. Besides, at WEE1, the IC50 was more than 11000 nM and the “PKMYT1 vs. WEE1 selectivity” value is on record as “Y (1000-5000 fold)”.

On to `Cc1ccc(O)c(C)c1NC(=O)c1cnc(Nc2ccc3cc(F)ccc3n2)s1` [BAA-288, 2-((6-fluoroquinolin-2-yl)amino)-N-(3-hydroxy-2,6-dimethylphenyl)thiazole-5-carboxamide], for which the IC50 on Human PKMYT1 was in the range of 50 to 1000 nM. For the same compound, at WEE1, the IC50 was more than 11000 nM and the “PKMYT1 vs. WEE1 selectivity” value was “X (100-<1000 fold)”.

Regarding `Cc1ccc(O)c(C)c1NC(=O)c1cnc(Nc2cccc(C(=O)N3CC4CCC3C4)c2)s1` (stereo not drawn) [BAA-289, 2-((3-(2-azabicyclo[2.2.1]heptane-2-carbonyl)phenyl)amino)-N-(3-hydroxy-2,6-dimethylphenyl)thiazole-5-carboxamide], the IC50 against Human PKMYT1 was less than 50 nM. Moreover, on WEE1, the IC50 fell in the range of 1000 to 11000 nM and the “PKMYT1 vs. WEE1 selectivity” value is on record as “X (100-<1000 fold)”.

Compound `Cc1ccc(O)c(C)c1NC(=O)c1cnc(Nc2cc3cc(F)ccc3cn2)s1` [BAA-290, 2-((6-fluoroisoquinolin-3-yl)amino)-N-(3-hydroxy-2,6-dimethylphenyl)thiazole-5-carboxamide] gave an IC50 against Human PKMYT1 of 50 to 1000 nM. In addition, on WEE1, the half-maximal inhibitory concentration (IC50) was more than 11000 nM and the “PKMYT1 vs. WEE1 selectivity” value was “X (100-<1000 fold)”.

Compound `Cc1ccc(O)c(C)c1NC(=O)c1cnc(Nc2nccc(-c3ccc(Cl)cc3)n2)s1` [BAA-293, 2-((4-(4-chlorophenyl)pyrimidin-2-yl)amino)-N-(3-hydroxy-2,6-dimethylphenyl)thiazole-5-carboxamide] returned an IC50 against Human PKMYT1 of less than 50 nM. Besides, on WEE1, the IC50 is more than 11000 nM and the “PKMYT1 vs. WEE1 selectivity” value is “Y (1000-5000 fold)”.

For the compound `Cc1ccc(O)c(C)c1NC(=O)c1cnc(Nc2nc(C)c(Br)c(C)n2)s1` [BAA-295, 2-((5-bromo-4,6-dimethylpyrimidin-2-yl)amino)-N-(3-hydroxy-2,6-dimethylphenyl)thiazole-5-carboxamide], the IC50 against Human PKMYT1 lay within 50 to 1000 nM. Further, at WEE1, the IC50 is more than 11000 nM and the “PKMYT1 vs. WEE1 selectivity” value is “Y (1000-5000 fold)”.

In turn, `Cc1ccc(O)c(C)c1NC(=O)c1cnc(Nc2ncc3cc(F)ccc3n2)s1` [BAA-296, 2-((6-fluoroquinazolin-2-yl)amino)-N-(3-hydroxy-2,6-dimethylphenyl)thiazole-5-carboxamide] yielded an IC50 at Human PKMYT1 of less than 50 nM. Further, at WEE1, the IC50 is more than 11000 nM and the “PKMYT1 vs. WEE1 selectivity” value is listed as “Y (1000-5000 fold)”.

On to `Cc1ccc(C(=O)Nc2ccc(Nc3ncc(C(=O)Nc4c(C)ccc(O)c4C)s3)nc2)c(C)c1` [BAA-297, 2-((5-(2,4-dimethylbenzamido)pyridin-2-yl)amino)-N-(3-hydroxy-2,6-dimethylphenyl)thiazole-5-carboxamide], for which the IC50 is 50 to 1000 nM against Human PKMYT1 and more than 11000 nM on WEE1. Further, the “PKMYT1 vs. WEE1 selectivity” value on WEE1 is “Y (1000-5000 fold)”.

As to `Cc1ccc(O)c(C)c1NC(=O)c1cnc(Nc2ccc3cc(Br)cnc3n2)s1` [BAA-298, 2-((6-bromo-1,8-naphthyridin-2-yl)amino)-N-(3-hydroxy-2,6-dimethylphenyl)thiazole-5-carboxamide], the results for the IC50 at Human PKMYT1 and against WEE1 were 50 to 1000 nM and more than 11000 nM, respectively. In addition, on WEE1, the “PKMYT1 vs. WEE1 selectivity” value is recorded as “Y (1000-5000 fold)”.

At Human PKMYT1, `Cc1ccc(O)c(C)c1NC(=O)c1cnc(Nc2ccc(NC(=O)CC(C)C)cn2)s1` [BAA-299, N-(3-hydroxy-2,6-dimethylphenyl)-2-((5-(3-methylbutanamido)pyridin-2-yl)amino)thiazole-5-carboxamide] came in with an IC50 of less than 50 nM. Also, on WEE1, the IC50 fell in the range of 1000 to 11000 nM and the “PKMYT1 vs. WEE1 selectivity” value is reported as “X (100-<1000 fold)”.

Take `Cc1ccc(O)c(C)c1NC(=O)c1cnc(Nc2ccc3cc(Br)ccc3n2)s1` [BAA-300, 2-((6-bromoquinolin-2-yl)amino)-N-(3-hydroxy-2,6-dimethylphenyl)thiazole-5-carboxamide]: the IC50 against Human PKMYT1 fell in the range of 50 to 1000 nM. At WEE1, the IC50 is more than 11000 nM and the “PKMYT1 vs. WEE1 selectivity” value is recorded as “X (100-<1000 fold)”.

Compound `Cc1ccc(O)c(C)c1NC(=O)c1cnc(Nc2nc(C)c(-c3cc(F)cc(F)c3)c(C)n2)s1` [BAA-301, 2-((5-(3,5-difluorophenyl)-4,6-dimethylpyrimidin-2-yl)amino)-N-(3-hydroxy-2,6-dimethylphenyl)thiazole-5-carboxamide] yielded a 50% inhibitory concentration (IC50) against Human PKMYT1 of 50 to 1000 nM. On WEE1, the IC50 was more than 11000 nM and the “PKMYT1 vs. WEE1 selectivity” value is reported as “X (100-<1000 fold)”.

On Human PKMYT1, `Cc1ccc(O)c(C)c1NC(=O)c1cnc(Nc2ccc(NC(=O)c3c(F)cc(F)cc3F)cn2)s1` [BAA-302, N-(3-hydroxy-2,6-dimethylphenyl)-2-((5-(2,4,6-trifluorobenzamido)pyridin-2-yl)amino)thiazole-5-carboxamide] returned an IC50 of 50 to 1000 nM. For the same compound, on WEE1, the IC50 was more than 11000 nM and the “PKMYT1 vs. WEE1 selectivity” value is “X (100-<1000 fold)”.

In turn, `Cc1ccc(O)c(C)c1NC(=O)c1cnc(Nc2ccnc(-c3ccc(F)cc3)c2)s1` [BAA-304, 2-((2-(4-fluorophenyl)pyridin-4-yl)amino)-N-(3-hydroxy-2,6-dimethylphenyl)thiazole-5-carboxamide] returned an IC50 at Human PKMYT1 of 50 to 1000 nM. Besides, at WEE1, the IC50 was more than 11000 nM and the “PKMYT1 vs. WEE1 selectivity” value is on record as “X (100-<1000 fold)”.

Regarding `Cc1ccc(O)c(C)c1NC(=O)c1cnc(Nc2cncc(-c3ccc(F)cc3)c2)s1` [BAA-305, 2-((5-(4-fluorophenyl)pyridin-3-yl)amino)-N-(3-hydroxy-2,6-dimethylphenyl)thiazole-5-carboxamide], the IC50 at Human PKMYT1 was in the range of 1000 to 11000 nM. Moreover, on WEE1, the IC50 was more than 11000 nM and the “PKMYT1 vs. WEE1 selectivity” value was “W (10-<100 fold)”.

For `Cc1ccc(O)c(C)c1NC(=O)c1cnc(Nc2ccc(Nc3ccc(F)cc3)cn2)s1` [BAA-310, 2-((5-((4-fluorophenyl)amino)pyridin-2-yl)amino)-N-(3-hydroxy-2,6-dimethylphenyl)thiazole-5-carboxamide], the IC50 against Human PKMYT1 fell in the range of 50 to 1000 nM. At WEE1, the IC50 was more than 11000 nM and the “PKMYT1 vs. WEE1 selectivity” value is reported as “X (100-<1000 fold)”.

As usually defined, the IC50 is the midpoint of a concentration-inhibition curve.
